Measured values: patent publication US5478825A, “5-(substituted amino)-1,2,4-triazolo (1,5-A) pyrimidine derivatives” (Egis Gyogyszergyar, priority 1991, dated 1995)
Read-outs that look alike come from different tables or passages of the source.

Key:
carrageen oedema = experiment: Antiinflammatory (Carrageen oedema inhibiting) effect; type: in vivo
Procedure: 4. Antiinflammatory (Carrageen oedema inhibiting) effect
The experiments were carried out by the method of Winter et al. [Winter, C. A. et al.: Proc. Soc. […] 0.1 ml of a 1 per cent carrageen suspension was injected subcutaneously into the plantar region of one of the hind paws. Rats were fasted for 12 hours and received drinking water ad libitum. One hour before treatment with the test compound the animals were hydrated orally with 30 ml/kg of tap water. The test compounds or the vehicle were administered p.o. in a volume of 10 ml/kg, then one hour later carrageen was applied. The volume of the treated paw was measured by a plethysmometer before and 3 hours after injection in such a way that displacement of the liquid arising from the volume alteration was indicated on a millimeter scale. The volume of the treated paws were compared with those of the control group.

[1] = system: anaesthetized cat, left ventricular pressure (dP/dtmax); experiment: Positive inotropic effect in anaesthetized cat; type: in vivo; conditions: Felis catus, iv; for change in vivo at 1 mg/kg: 1 mg/kg i.v.; for change in vivo at 5 mg/kg: 5 mg/kg i.v.; for change in vivo at 10 mg/kg: 10 mg/kg i.v.
Procedure: 1. Positive inotropic effect in anaesthetized cat
The experiments were carried out on male and female cats anaesthetized with chloralose-urethane (40/300 mg/kg i.p. in a volume of 1 ml/kg). A polyethylene catheter was inserted into the left ventricle via the right subclavian artery. The inotropic activity was measured with the aid of the first derivative by time of the left ventricular pressure curve (dP/dtmax). The blood pressure was measured by means of another catheter introduced from the left femoral artery into the upper third part of the abdominal artery. A Statham P23Db transducer and HSE (Hugo Sachs Electronics) amplifiers were used for both pressure measurements. […] The test compounds were administered via a femoral venous cannula.

right atrium = experiment: Positive inotropic effect in guinea pig (isolated right atrium); conditions: for Frequency: percentage change of atrial frequency; for Concentration force dP/dt: percentage change, 2 Hz, 37° C., concentration not given
Procedure: 2. Positive inotropic effect in guinea pig
The experiments were carried out by the method of Alousi [Alousi, A. A. et al.: J. Cardiovasc. […] Animals weighing 400-600 g were stunned with a blow to the head and exsanguinated. The heart was excised and the right atrium was removed and placed into a modified Tyrode solution of 37° C. It was then preloaded with 2.1 g and stimulated electrically at a rate of 2 Hz by rectangular pulses 0.5 ms in duration. The first derivative by time of the contraction force of the isolated organ (dP/dt) and the atrial frequency were recorded by a polygraph. From the data thus obtained percentage changes were calculated.

[2] = system: rats (vasopressin induced coronaria insufficiency); experiment: Antianginal effect in rats (vasopressin induced coronaria insufficiency); type: in vivo; conditions: Rattus norvegicus, iv; i.v. 2 minutes prior to vasopressin; T wave in ECG
Procedure: 3.a) Antianginal effect in rats
Rats weighing 180-220 g were narcotized with chloralose-urethane (70/700 mg/kg i.p.). The ECG was registered with needle electrodes in standard II leading. The experimental coronaria insufficiency was induced with vasopressin (1 NE/kg i.v.). The height of T wave in ECG was measured before and after the administration of vasopressin in both the control and treated groups. Test compounds were administered intravenously 2 minutes prior to the treatment with vasopressin.

motility of mice = experiment: Motility inhibiting activity; type: in vivo; conditions: 100 mg/kg, orally
Procedure: 5. Motility inhibiting activity
The tests were performed according to the method of Borsy et al. [Arch. Int. Pharmacodyn. 124, 1-2 (1960)]. Groups consisting of 3 mice each were treated orally with different doses of the compounds to be tested. Then the test animals were placed in a Dews equipment. In this equipment the number of interruptions of infrared beam within 30 minutes was counted. The inhibition is expressed as the percentage of the value obtained for the control animals.

coronary artery = experiment: Coronary flow test in dog; type: in vivo
Procedure: 3.b) Coronary flow test in dog
The experiments were carried out in young mongrel do, of both sexes weighing 10-26 kg. The test compounds were administered in 1-5-10 mg/kg doses intravenously. […] Mean arterial blood pressure was recorded on the carotis with a Statham gauge (type: p23Db). The changes of the myocardial contractile forces were followed isometrically with a microdynamometer (type: Experimetria, SG-01) affixed to the anterior wall of the left ventricle. Data were collected on the first derivate of the myocardial contractile force to follow the changes of the contraction and relaxation speed. […] The changes of the heart rate were also followed. The conductivity of the coronary artery (the ratio of the mean coronary flow and the mean blood pressure) was calculated. The mean values were evaluated statistically using Student's test as well as regression analysis and multiple t test.

[3] = Rattus norvegicus, po, 3 h; read-out: ID30

## CC(=O)Oc1ccccc1C(=O)O [Acetylsalicylic acid, reference compound]
Carrageen oedema; Rattus norvegicus, po, 3 h, read-out: ID30
  ED30: 62.4 mg/kg

## Nc1cc(-c2ccncc2)c[nH]c1=O [Amrinone, reference compound]
[1]
  change in vivo at 1 mg/kg: 19%
  change in vivo at 5 mg/kg: 53.9%
  change in vivo at 10 mg/kg: 48.3%
Right atrium
  Frequency: 28%
  Concentration force dP/dt: 33%

## C=CCN(CC=C)c1c2c(nc3nc(SC)nn13)CCC2 [Example 4, 5-(Diallylamino)-2-(methylthio)-6,7-dihydro-8H-cyclopenta[d]-1,2,4-triazolo[1,5-a]pyrimidine]
[2]
  ED50: 1.97 mg/kg

## CSc1nc2nc3c(c(NCc4ccccc4)n2n1)CCC3 [Example 6, 5-(Benzylamino)-2-(methylthio)-6,7-dihydro-8H-cyclopenta[d]-1,2,4-triazolo[1,5-a]pyrimidine]
[2]
  ED50: 1.49 mg/kg

## CSc1nc2nc3c(c(NCc4ccc(Cl)cc4)n2n1)CCC3 [Example 7, 5-(4-Chlorobenzylamino)-2-(methylthio)-6,7-dihydro-8H-cyclopenta[d]-1,2,4-triazolo[1,5-a]pyrimidine]
Carrageen oedema; [3]
  ED30: 200 mg/kg

## CSc1nc2nc3c(c(N4CCOCC4)n2n1)CCC3 [Example 8, 2-(Methylthio)-5-morpholino-6,7-dihydro-8H-cyclopenta[d]-1,2,4-triazolo[1,5-a]pyrimidine]
[1]
  change in vivo at 1 mg/kg: 42.8%
  change in vivo at 5 mg/kg: 76%
  change in vivo at 10 mg/kg: 86.3%
Right atrium
  Frequency: -5%
  Concentration force dP/dt: 86%

## CSc1nc2nc3c(c(N4CCN(CCO)CC4)n2n1)CCC3 [Example 9, 5-[4-(2-Hydroxyethyl)piperazino]-2-(methylthio)-6,7-dihydro-8H-cyclopenta[d]-1,2,4-triazolo[1,5-a]pyrimidine]
[2]
  ED50: ~2 mg/kg

## CSc1nc2nc3c(c(NCCN4CCOCC4)n2n1)CCC3 [Example 10, 2-(Methylthio)-5-[N-(2-morpholinoethyl)]amino-6,7-dihydro-8H-cyclopenta[d]-1,2,4-triazolo[1,5-a]pyrimidine]
Carrageen oedema; [3]
  ED30: 120 mg/kg
[2]
  ED50: 1.47 mg/kg

## C1CCN(c2c3c(nc4nc(N5CCOCC5)nn24)CCC3)CC1 [Example 16, 2-Morpholino-5-piperidino-6,7-dihydro-8H-cyclopenta[d]-1,2,4-triazolo[1,5-a]pyrimidine]
Motility of mice
  Change in motility vs control: -53%
[2]
  ED50: 1.52 mg/kg

## CSc1nc2nc3c(c(NCCCN4CCOCC4)n2n1)CCCC3 [Example 19, 2-(Methylthio)-5-[N-(3-morpholinopropyl)]amino-6,7,8,9-tetrahydro-1,2,4-triazolo[5,1-b]quinazoline]
[1]
  change in vivo at 1 mg/kg: 35%
  change in vivo at 5 mg/kg: 72.8%
  change in vivo at 10 mg/kg: 90.6%
Right atrium
  Frequency: -2%
  Concentration force dP/dt: 171%

## CN(C)CCCNc1c2c(nc3nc(N4CCOCC4)nn13)CCCC2 [Example 22, 5-[N-(3-Dimethylaminopropyl)]amino-2-morpholino-6,7,8,9-tetrahydro-1,2,4-triazolo[5,1-b]quinazoline]
[2]
  ED50: ~2 mg/kg

## CCN(CC)c1c2c(nc3nc(N(C)C)nn13)CCCS2 [Example 26, 5-(Diethylamino)-2-(dimethylamino)-7,8-dihydro-9H-thiopyrano[3,2-d]-1,2,4-triazolo[1,5-a]pyrimidine]
Carrageen oedema; [3]
  ED30: 170 mg/kg

## CC(C)Sc1nc2nc3c(c(NCCCN4CCOCC4)n2n1)CCCC3 [Example 30, 2-(1-Methylethylthio)-5-[N-(3-morpholinopropyl)]amino-6,7,8,9-tetrahydro-1,2,4-triazolo[5,1-b]quinazoline]
Coronary artery; 1 mg/kg i.v.
  Conductivity of the coronary artery: 166%
Coronary artery; 5 mg/kg i.v.
  Conductivity of the coronary artery: 397%
Coronary artery; 10 mg/kg i.v.
  Conductivity of the coronary artery: 481%
[1]
  change in vivo at 1 mg/kg: 22.3%
  change in vivo at 5 mg/kg: 53.8%
  change in vivo at 10 mg/kg: 86.8%

## CCSc1nc2nc3c(c(NCCN4CCOCC4)n2n1)CCCC3 [Example 31, 2-(Ethylthio)-5-[N-(2-morpholinoethyl)]amino-6,7,8,9-tetrahydro-1,2,4-triazolo[5,1-b]quinazoline]
[1]
  change in vivo at 1 mg/kg: 46.5%
  change in vivo at 5 mg/kg: 131%
  change in vivo at 10 mg/kg: 129%

## CSc1nc2nc3c(c(NCCN4CCOCC4)n2n1)CCCCCCCCCC3 [Example 35, 2-(Methylthio)-5-[N-(2-morpholinoethyl)]amino-6,7,8,9,10,11,12,13,14,15-decahydro-cyclododeca[d]-1,2,4-triazolo[1,5-a]pyrimidine]
Coronary artery; 1 mg/kg i.v.
  Conductivity of the coronary artery: 256%
Coronary artery; 5 mg/kg i.v.
  Conductivity of the coronary artery: 940%
Coronary artery; 10 mg/kg i.v.
  Conductivity of the coronary artery: 1030%
Right atrium
  Frequency: 8%
  Concentration force dP/dt: 79%

## CSc1nc2nc3c(c(NCCN4CCOCC4)n2n1)CCCCC3 [Example 37, 2-(Methylthio)-5-[N-(2-morpholinoethyl)]amino-6,7,8,9-tetrahydro-10H-cyclohepta[d]-1,2,4-triazolo[1,5-a]pyrimidine]
Coronary artery; 1 mg/kg i.v.
  Conductivity of the coronary artery: 188%
Coronary artery; 5 mg/kg i.v.
  Conductivity of the coronary artery: 371%
Coronary artery; 10 mg/kg i.v.
  Conductivity of the coronary artery: 780%

## CSc1nc2nc3c(c(NCCN4CCOCC4)n2n1)SCCC3 [Example 39, 2-(Methylthio)-5-[N-(2-morpholinoethyl)]amino-7,8-dihydro-9H-thiopyrano[3,2-d]-1,2,4-triazolo[1,5-a]pyrimidine]
Right atrium
  Frequency: -12%
  Concentration force dP/dt: 51%

## CSc1nc2nc3c(c(NCCN4CCOCC4)n2n1)CCN(Cc1ccccc1)C3 [Example 46, 8-Benzyl-2-(methylthio)-5-[N-(2-morpholinoethyl)]amino-6,7,8,9-tetrahydropyrido[3,4-d]-1,2,4-triazolo[1,5-a]pyrimidine]
Right atrium
  Frequency: -15%
  Concentration force dP/dt: 80%

## COc1ccc(CNc2c3c(nc4nc(SC)nn24)CCC3)cc1 [Example 50, 2-(Methylthio)-5-(4-methoxybenzylamino)-6,7-dihydro-8H-cyclopenta[d]-1,2,4-triazolo[1,5-a]pyrimidine]
Carrageen oedema; [3]
  ED30: 190 mg/kg

## CN(C)c1nc2nc3c(c(NCCCN4CCOCC4)n2n1)SCCC3 [Example 53, 2-(Dimethylamino)-5-[N-(3-morpholinopropyl)]amino7,8-dihydro-9H-thiopyrano[3,2-d]-1,2,4-triazolo[1,5-a]pyrimidine]
[1]; 0.5 mg/kg i.v.
  change in vivo at 0.5 mg/kg: 35.5%
[1]
  change in vivo at 1 mg/kg: 48%
  change in vivo at 5 mg/kg: 95%
  change in vivo at 10 mg/kg: 93.6%

## CSc1nc2nc3c(c(N4CCN(Cc5ccccc5)CC4)n2n1)CCC3 [Example 54, 5-(4-Benzylpiperazino)-2-(methylthio)-6,7-dihydro-8H-cyclopenta[d]-1,2,4-triazolo[1,5-a]pyrimidine]
Carrageen oedema; [3]
  ED30: 85 mg/kg

## CCOC(=O)CNc1c2c(nc3nc(SC)nn13)CCC2 [Example 60, Ethyl N-[2-methylthio-6,7-dihydro-8H-cyclopenta[d]-1,2,4-triazolo[1,5-a]pyrimidin-5-yl]glycinate]
[2]
  ED50: ~2 mg/kg

## CC(=O)Nc1ccc(O)cc1 [Paracetamol, reference compound]
Carrageen oedema; [3]
  ED30: 195 mg/kg
